Activity calls are given as the source filed them. The rule behind the calls is not given here.
Columns and labels:
[1] = system: DNA; experiment: Stabilization of human telomere promoter G-quadruplex DNA (unknown origin); format: nucleic-acid assay
[2] = system: HepG2; experiment: Induction of apoptosis in human HepG2 cells assessed as early apoptotic cells levels at 8 uM incubated for 2 days by Annexin-V-FITC and propidium iodide staining based flow cytometry (reference value: 0.3%); format: functional
[3] = system: HepG2; experiment: Induction of apoptosis in human HepG2 cells assessed as early apoptotic cells levels at 8 uM incubated for 3 days by Annexin-V-FITC and propidium iodide staining based flow cytometry (reference value: 2.9%); format: functional
[4] = system: HepG2; experiment: Reduction in c-Myc gene expression in human HepG2 cells at 2 to 16 uM incubated for 2 days by RT-PCR method; format: functional, cell-based
[5] = system: HepG2; experiment: Effect on TERT gene expression in human HepG2 cells at 2 to 16 uM incubated for 2 days by RT-PCR method; format: functional, cell-based
[6] = system: HepG2; experiment: Induction of cell cycle arrest in human HepG2 cells assessed as accumulation at G2/M phase at 4 uM incubated for 2 days by propidium iodide staining based flow cytometry method (reference value: 21.39%); format: functional
[7] = system: HepG2; experiment: Induction of apoptosis in human HepG2 cells assessed as viable cells levels at 12 uM incubated for 2 days by Annexin-V-FITC and propidium iodide staining based flow cytometry (reference value: 97.9%); format: functional
[8] = system: HepG2; experiment: Induction of apoptosis in human HepG2 cells assessed as late apoptotic cells levels at 12 uM incubated for 2 days by Annexin-V-FITC and propidium iodide staining based flow cytometry (reference value: 0.5%); format: functional
[9] = system: HepG2; experiment: Induction of apoptosis in human HepG2 cells assessed as necrotic cells levels at 12 uM incubated for 2 days by Annexin-V-FITC and propidium iodide staining based flow cytometry (reference value: 1.4%); format: functional
[10] = system: HepG2; experiment: Induction of apoptosis in human HepG2 cells assessed as late apoptotic cells levels at 8 uM incubated for 3 days by Annexin-V-FITC and propidium iodide staining based flow cytometry (reference value: 3.9%); format: functional
[11] = system: HepG2; experiment: Increase in p53 protein expression in human HepG2 cells at 8 and 12 uM incubated for 2 days by Western blot method; format: functional, cell-based
[12] = system: HepG2; experiment: Reduction in cyclin D1/CDK4 protein expression in human HepG2 cells incubated for 2 days by Western blot method; format: functional, cell-based
[13] = system: HepG2; experiment: Induction of apoptosis in human HepG2 cells assessed as necrotic cells levels at 12 uM incubated for 3 days by Annexin-V-FITC and propidium iodide staining based flow cytometry (reference value: 3.8%); format: functional
[14] = system: HepG2; experiment: Induction of apoptosis in human HepG2 cells assessed as late apoptotic cells levels at 12 uM incubated for 3 days by Annexin-V-FITC and propidium iodide staining based flow cytometry (reference value: 3.9%); format: functional
[15] = system: HepG2; experiment: Cytotoxicity against human HepG2 cells assessed as reduction in cell viability incubated for 72 hrs by MTT assay; format: functional, cell-based; conditions: HepG2, 72 h
[16] = system: HepG2; experiment: Reduction in TERT protein expression in human HepG2 cells at 0.5 to 20 uM incubated for 2 days by Western blot method; format: functional, cell-based
[17] = system: HepG2; experiment: Inhibition of telomeric DNA elongation in human HepG2 cells at 0.5 uM incubated for 17 days by telomere restriction fragment length assay; format: functional, cell-based
[18] = system: HeLa; experiment: Cytotoxicity against human HeLa cells assessed as reduction in cell viability incubated for 72 hrs by MTT assay; format: functional, cell-based
[19] = system: HepG2; experiment: Induction of apoptosis in human HepG2 cells assessed as early apoptotic cells levels at 12 uM incubated for 2 days by Annexin-V-FITC and propidium iodide staining based flow cytometry (reference value: 0.3%); format: functional
[20] = Stabilization of c-myc promoter G-quadruplex DNA (unknown origin)
[21] = system: HepG2; experiment: Induction of apoptosis in human HepG2 cells assessed as viable cells levels at 8 uM incubated for 3 days by Annexin-V-FITC and propidium iodide staining based flow cytometry (reference value: 89.3%); format: functional
[22] = system: HepG2; experiment: Induction of apoptosis in human HepG2 cells assessed as necrotic cells levels at 8 uM incubated for 3 days by Annexin-V-FITC and propidium iodide staining based flow cytometry (reference value: 3.8%); format: functional
[23] = system: HepG2; experiment: Induction of cell cycle arrest in human HepG2 cells assessed as increase in accumulation at G0/G1 phase incubated for 2 days by propidium iodide staining based flow cytometry method; format: functional
[24] = system: HepG2; experiment: Induction of cell cycle arrest in human HepG2 cells assessed as reduction in accumulation at G2/M phase incubated for 2 days by propidium iodide staining based flow cytometry method; format: functional
[25] = system: HepG2; experiment: Induction of apoptosis in human HepG2 cells assessed as late apoptotic cells levels at 8 uM incubated for 2 days by Annexin-V-FITC and propidium iodide staining based flow cytometry (reference value: 0.5%); format: functional
[26] = system: HepG2; experiment: Induction of cell cycle arrest in human HepG2 cells assessed as accumulation at G2/M phase at 8 uM incubated for 2 days by propidium iodide staining based flow cytometry method (reference value: 21.39%); format: functional
[27] = system: HepG2; experiment: Induction of cell cycle arrest in human HepG2 cells assessed as reduction in accumulation at S phase incubated for 2 days by propidium iodide staining based flow cytometry method; format: functional
[28] = system: HepG2; experiment: Induction of apoptosis in human HepG2 cells by Annexin-V-FITC and propidium iodide staining based flow cytometry; format: functional, cell-based
[29] = system: HepG2; experiment: Induction of cell cycle arrest in human HepG2 cells assessed as accumulation at G0/G1 phase at 8 uM incubated for 2 days by propidium iodide staining based flow cytometry method (reference value: 51.56%); format: functional
[30] = system: HepG2; experiment: Induction of apoptosis in human HepG2 cells assessed as early apoptotic cells levels at 12 uM incubated for 3 days by Annexin-V-FITC and propidium iodide staining based flow cytometry (reference value: 2.9%); format: functional
[31] = system: HepG2; experiment: Reduction in c-Myc protein expression in human HepG2 cells at 0.5 to 20 uM incubated for 2 days by Western blot method; format: functional, cell-based
[32] = system: HepG2; experiment: Induction of apoptosis in human HepG2 cells assessed as necrotic cells levels at 8 uM incubated for 2 days by Annexin-V-FITC and propidium iodide staining based flow cytometry (reference value: 1.4%); format: functional
[33] = system: HepG2; experiment: Reduction in Sp1 protein expression in human HepG2 cells at 8 and 12 uM incubated for 2 days by Western blot method; format: functional, cell-based
[34] = system: HepG2; experiment: Reduction in cyclin B1/CDK1 protein expression in human HepG2 cells incubated for 2 days by Western blot method; format: functional, cell-based
[35] = system: HepG2; experiment: Induction of apoptosis in human HepG2 cells assessed as viable cells levels at 12 uM incubated for 3 days by Annexin-V-FITC and propidium iodide staining based flow cytometry (reference value: 89.3%); format: functional
[36] = system: HepG2; experiment: Inhibition of cell proliferation of human HepG2 cells at 0.5 uM incubated for 12 days by long-term cell growth inhibition assay; format: functional, cell-based
[37] = system: HepG2; experiment: Induction of cell cycle arrest in human HepG2 cells assessed as accumulation at G0/G1 phase at 4 uM incubated for 2 days by propidium iodide staining based flow cytometry method (reference value: 51.56%); format: functional
[38] = system: HepG2; experiment: Induction of cell cycle arrest in human HepG2 cells assessed as accumulation at S phase at 4 uM incubated for 2 days by propidium iodide staining based flow cytometry method (reference value: 27.05%); format: functional
[39] = system: HepG2; experiment: Induction of apoptosis in human HepG2 cells assessed as viable cells levels at 8 uM incubated for 2 days by Annexin-V-FITC and propidium iodide staining based flow cytometry (reference value: 97.9%); format: functional
[40] = system: MCF7; experiment: Cytotoxicity against human MCF7 cells assessed as reduction in cell viability incubated for 72 hrs by MTT assay; format: functional, cell-based; conditions: MCF7, 72 h
[41] = system: HepG2; experiment: Induction of cell cycle arrest in human HepG2 cells assessed as accumulation at S phase at 8 uM incubated for 2 days by propidium iodide staining based flow cytometry method (reference value: 27.05%); format: functional
[42] = system: HepG2; experiment: Induction of cell cycle arrest in human HepG2 cells assessed as accumulation at S phase at 8 uM incubated for 2 days by propidium iodide staining based flow cytometry method (reference value: 24.65%); format: functional
[43] = system: HepG2; experiment: Induction of cell cycle arrest in human HepG2 cells assessed as accumulation at G0/G1 phase at 4 uM incubated for 2 days by propidium iodide staining based flow cytometry method (reference value: 64.6%); format: functional
[44] = system: HepG2; experiment: Reduction in TERT protein expression in human HepG2 cells at 2 to 12 uM incubated for 2 days by Western blot method; format: functional, cell-based
[45] = system: HepG2; experiment: Reduction in c-Myc protein expression in human HepG2 cells at 2 to 12 uM incubated for 2 days by Western blot method; format: functional, cell-based
[46] = system: HepG2; experiment: Induction of cell cycle arrest in human HepG2 cells assessed as accumulation at S phase at 4 uM incubated for 2 days by propidium iodide staining based flow cytometry method (reference value: 24.65%); format: functional
[47] = system: HepG2; experiment: Induction of cell cycle arrest in human HepG2 cells assessed as accumulation at G0/G1 phase at 8 uM incubated for 2 days by propidium iodide staining based flow cytometry method (reference value: 64.6%); format: functional
[48] = system: HepG2; experiment: Induction of cell cycle arrest in human HepG2 cells assessed as accumulation at G2/M phase at 4 uM incubated for 2 days by propidium iodide staining based flow cytometry method (reference value: 10.75%); format: functional
[49] = system: HepG2; experiment: Induction of cell cycle arrest in human HepG2 cells assessed as accumulation at G2/M phase at 8 uM incubated for 2 days by propidium iodide staining based flow cytometry method (reference value: 10.75%); format: functional

## O=C(Nc1ccc(OCCN2CCCC2)cc1)c1ccc2ccc3ccc(C(=O)Nc4ccc(OCCN5CCCC5)cc4)nc3c2n1
[1]
  Activity: Active
[2]
  Activity: 10.8%
[3]
  Activity: 46.6%
[4]
  inhibition: Active
[5]
  Activity: inactive
[6]
  Activity: 18.55%
[7]
  Activity: 65.1%
[8]
  Activity: 9.5%
[9]
  Activity: 6%
[10]
  Activity: 20%
[11]
  Activity: Active
[12]
  inhibition: Dose-dependent effect
[13]
  Activity: 1.1%
[14]
  Activity: 10.7%
[15]
  IC50: 500 nM
[16]
  inhibition: Active
[17]
  inhibition: inactive
[18]
  IC50: 2100 nM
[19]
  Activity: 19.4%
[20]
  Activity: Active
[21]
  Activity: 28.2%
[22]
  Activity: 5.2%
[23]
  Activity: Dose-dependent effect
[24]
  Activity: Dose-dependent effect
[25]
  Activity: 5.4%
[26]
  Activity: 15.13%
[27]
  Activity: Dose-dependent effect
[28]
  Activity: Dose-dependent effect
[29]
  Activity: 64.97%
[30]
  Activity: 73.9%
[31]
  inhibition: Active
[32]
  Activity: 5.3%
[33]
  inhibition: Dose-dependent effect
[34]
  inhibition: Dose-dependent effect
[35]
  Activity: 14.4%
[36]
  inhibition: Active
[37]
  Activity: 55.76%
[38]
  Activity: 25.69%
[39]
  Activity: 78.4%
[40]
  IC50: 2000 nM
[41]
  Activity: 19.9%

## O=C(CCN1CCCC1)Nc1cccc(NC(=O)c2ccc3ccc4ccc(C(=O)Nc5cccc(NC(=O)CCN6CCCC6)n5)nc4c3n2)n1
[1]
  Activity: Active
[2]
  Activity: 3.3%
[3]
  Activity: 39.6%
[4]
  inhibition: Active
[5]
  Activity: inactive
[42]
  Activity: 38.57%
[7]
  Activity: 81.7%
[8]
  Activity: 8.2%
[9]
  Activity: 5.2%
[10]
  Activity: 17.4%
[11]
  Activity: Active
[12]
  inhibition: Dose-dependent effect
[43]
  Activity: 59.87%
[13]
  Activity: 10.2%
[14]
  Activity: 18.7%
[44]
  inhibition: Active
[15]
  IC50: 1260 nM
[17]
  inhibition: inactive
[18]
  IC50: 830 nM
[19]
  Activity: 4.9%
[20]
  Activity: Active
[21]
  Activity: 33.7%
[45]
  inhibition: Active
[22]
  Activity: 9.3%
[46]
  Activity: 26.82%
[25]
  Activity: 7.5%
[28]
  Activity: Dose-dependent effect
[30]
  Activity: 39.5%
[47]
  Activity: 42.26%
[32]
  Activity: 5%
[33]
  inhibition: Dose-dependent effect
[34]
  inhibition: Dose-dependent effect
[35]
  Activity: 31.6%
[36]
  inhibition: Active
[48]
  Activity: 13.82%
[49]
  Activity: 19.17%
[39]
  Activity: 84.2%
[40]
  IC50: 1570 nM

Source: ChEMBL document CHEMBL3612056, “Mechanism studies on anti-HepG2 cell proliferation of phenanthroline derivatives as G-quadruplex DNA stabilizers” (Bioorg Med Chem Lett, 2015)
